# Measurements as given in US20150250175A1, “PESTICIDALLY ACTIVE MIXTURES COMPRISING ANTHRANILAMIDE COMPOUNDS” (BASF SE, priority 2012, published 2015).
# Columns and labels:
# [1] = test system: green peach aphid (Myzus persicae); test: Green peach aphid (Myzus persicae) control, systemic, artificial diet under membrane, 96-well plates; format: in vivo; conditions: 3 days
# Source text: After application, 5-8 adult aphids were placed on the artificial membrane inside the microtiter plate wells. […] Aphid mortality and fecundity was then visually assessed.
# [2] = test system: boll weevil (Anthonomus grandis); test: Boll weevil (Anthonomus grandis) control, insect diet with eggs, 24-well plates; conditions: 5 days
# [3] = test system: Mediterranean fruitfly (Ceratitis capitata); test: Mediterranean fruitfly (Ceratitis capitata) control, insect diet with eggs, 96-well plates; conditions: 5 days
# [4] = test system: tobacco budworm (Heliothis virescens); test: Tobacco budworm (Heliothis virescens) control, insect diet with eggs, 96-well plates; conditions: 5 days
# [5] = test system: vetch aphid (Megoura viciae); test: Vetch aphid (Megoura viciae) control, broad bean leaf disks in 24-well microtiter plates; format: in vivo; conditions: sprayed on leaf disks, aphid mortality and fecundity after 5 days
# Source text: After application, the leaf disks were air-dried and 5-8 adult aphids placed on the leaf disks inside the microtiter plate wells. […] Aphid mortality and fecundity was then visually assessed.
# [6] = 0.0016 + 0 ppm (mixing partner alone at 0.0016 ppm)
# [7] = 0.08 + 0 ppm (mixing partner alone at 0.08 ppm)
# [8] = 0 + 1 ppm (compound I alone at 1 ppm)
# [9] = 0 + 5 ppm (compound I alone at 5 ppm)
# [10] = 3.2 + 0 ppm (mixing partner alone at 3.2 ppm)
# [11] = 0 + 0.2 ppm (compound I alone at 0.2 ppm)
molecule,measurement,setting,value
N#C/N=C1\SCCN1Cc1ccc(Cl)nc1 [Thiacloprid],Average (Control %),[1]; [6],50%
same,Average (Control %),[2]; [6],0%
Spinosad,Average (Control %),[3]; [7],0%
same,Average (Control %),[4]; [7],0%
same,Average (Control %),[4]; 0.4 + 0 ppm (mixing partner alone at 0.4 ppm),0%
same,Average (Control %),[2]; [7],0%
CN/C(=N\[N+](=O)[O-])NCc1cnc(Cl)s1 [Clothianidin],Average (Control %),[3]; 1 + 0 ppm (mixing partner alone at 1 ppm),0%
same,Average (Control %),[4]; [7],0%
"CCS(CC)=NC(=O)c1cc(Cl)cc(Cl)c1NC(=O)c1cc(C(F)(F)F)nn1-c1ncccc1Cl [Compound I-16, 2-(3-chloro-2-pyridyl)-N-[2,4-dichloro-6-[(diethyl-λ^4-sulfanylidene)carbamoyl]phenyl]-5-(trifluoromethyl)pyrazole-3-carboxamide]",Average (Control %),[1]; [8],25%
same,Average (Control %),[3]; [9],0%
same,Average (Control %),[4]; [8],0%
"CCOC(=O)OC1=C(c2cc(C)ccc2C)C(=O)N[C@]12CC[C@@H](OC)CC2 [Spirotetramat, spirotetramat, reference compound]",Average (Control %),[1]; [10],0%
same,Average (Control %),[1]; 80 + 0 ppm (mixing partner alone at 80 ppm),50%
same,Average (Control %),[4]; [10],0%
same,Average (Control %),"[5]; Spirotetramat + I-11 at 80 + 0 ppm (Spirotetramat alone, 80 ppm)",25%
CC[S+]([O-])c1c(C#N)nn(-c2c(Cl)cc(C(F)(F)F)cc2Cl)c1N (centres unmarked) [Ethiprol],Average (Control %),[3]; 10 + 0 ppm (mixing partner alone at 10 ppm),0%
same,Average (Control %),[4]; [7],0%
same,Average (Control %),[2]; 2 + 0 ppm (mixing partner alone at 2 ppm),50%
"Cc1cc(Cl)cc(C(=O)N=S(C(C)C)C(C)C)c1NC(=O)c1cc(C(F)(F)F)nn1-c1ncccc1Cl [Compound I-21, 2-(3-chloro-2-pyridyl)-N-[2-methyl-4-chloro-6-[(bis-2-propyl-λ^4-sulfanylidene)carbamoyl]phenyl]-5-(trifluoromethyl)pyrazole-3-carboxamide]",Average (Control %),[3]; [9],0%
same,Average (Control %),[4]; [11],0%
same,Average (Control %),[4]; [8],50%
same,Average (Control %),[2]; [9],0%
"CCS(CC)=NC(=O)c1cc(Cl)cc(C)c1NC(=O)c1cc(C(F)(F)F)nn1-c1ncccc1Cl [Compound I-11, 2-(3-chloro-2-pyridyl)-N-[2-methyl-4-chloro-6-[(diethyl-λ^4-sulfanylidene)carbamoyl]phenyl]-5-(trifluoromethyl)pyrazole-3-carboxamide]",Average (Control %),[1]; [8],0%
same,Average (Control %),[4]; [11],0%
same,Average (Control %),[2]; [8],0%
same,Average (Control %),"[5]; Spirotetramat + I-11 at 0 + 1 ppm (I-11 alone, 1 ppm)",0%
